Publication PMC12298629, “New Derivatives of Caracasine Acid with Anti-Leukemic Activity and Limited Effectiveness in Spheroid Cultures” (Pharmaceuticals, 2025)

Columns and labels:
caspase 9 = experiment: Caspase 9 activity in lysed HCT116 cells from 2D and spheroids; type: cell-based, human; details: HCT116 parental spheroids, 25 µM (cisplatin 15 μM), 12 h
Method: (§1) The assay was designed to evaluate the impact of various compounds on caspase activity using a standardized quantity of cell protein lysates after 12 h of incubation. The parental line HCT116 served as the basis for these experiments. Three distinct caspases were examined employing the fluorescence assay kits from Calbiochem (San Diego, CA, USA), specifically a fluorometric caspase-8 assay kit and a fluorimetric caspase-3 assay kit. Additionally, the fluorometric kit from Abcam was utilized to assess caspase-9 activity. Due to the variations in protocols for each caspase, separate plates were prepared for each assay, encompassing both two-dimensional (2D) cell cultures and spheroids. The compound concentrations were established at 25 µM, and assays were conducted in quintuplicate following a 12-h incubation period. The cells were harvested from the plates using the standard trypsin-EDTA solution (Merck Sigma Aldrich, Saint Louis, MO, USA), washed, and counted before lysis, as described in each kit. Cell processing adhered to the guidelines provided by the respective companies, and protein concentration was calculated and standardized using the standard BCA assay. Fluorescent readings were captured using the Enspire apparatus (Perkin-Elmer, MA, USA). Positive controls utilized included staurosporine at a concentration of 5 μM and cisplatin at 15 μM. The kits provided their own standards; however, to normalize all the readings between cultures, types, and treatments, the results were expressed as a percentage relative to the positive control, staurosporine, in 2D culture. […] A total of three separate assays were conducted for each caspase.

RAJI = experiment: Cytotoxic MTS assay, Raji; type: cell-based; details: human leukemia cell line, 72 h, median of five assays
Excerpt: (§2) The cancer cell lines used in the cytotoxic assays were acquired from the American Tissue Culture Collection (ATCC) (Manassas, VA, USA) and maintained as described previously. The MRC-5 and BJ human fibroblasts were used as non-tumoral control cells. The (MRC-5 LD and BJ LD) are also human fibroblast cell lines resistant to doxorubicin. […] The Raji and Ramos cell lines correspond to B-cell leukemia. Other cells, such as U2OS, represent a child osteosarcoma, while HCT116 is a colorectal tumor cell line. (HCT116p53^−/−, Horizon Discovery Ltd., Cambridge, UK) is a similar cell line with its p53 gene knocked down, serving as a model of human cancer frequently associated with a poor prognosis. The cells were maintained in Nunc/corning 80 cm^2 plastic tissue culture flasks and cultured in a cell culture medium according to ATCC or Horizon recommendations (McCoy, DMEM/RPMI 1640 with 5 g/L glucose, 2 mM glutamine, 100 U/mL penicillin, […] streptomycin, 10% fetal calf serum, and NaHCO3). The compounds were freshly dissolved in DMSO. The final concentration of DMSO was 0.01% in the cell culture.
(§3) The in vitro cytotoxicity of compounds (1–7) was assessed using the standard 3-(4,5-dimethyl-thiazol-2yl)-5-(3-carboxymethoxyphenyl)-2-(sulfophenyl)-2H-tetrazolium (MTS). The assay was performed at the Institute of Molecular and Translational Medicine using a robotic platform (High-ResBiosolutions, Beverly, MA, USA). Cell suspensions were prepared and diluted according to the specific cell type and the expected target cell density (25,000–35,000 cells/mL, based on cell growth characteristics). An automatic pipettor (30 μL) was used to add cells into 384-well microtiter plates. All tested compounds were dissolved in 100% DMSO, and four-fold dilutions of the intended test concentrations were added in 0.15 μL aliquots at time zero to the microtiter plate wells by the echo acoustic non-contact liquid handler Echo550 (Labcyte, San Jose, CA, USA). The assays were accomplished in technical duplicates and at least three biological replicates. The cells were incubated with the tested compound for 72 h at 37 °C in a 5% CO2 atmosphere with 100% humidity. At the end of the incubation period, cells were assayed using the MTS test. Aliquots (5 μL) of the MTS stock solution were pipetted into each well and incubated for 1–4 h. After this incubation period, the optical density (OD) was measured at 490 nm using an Envision reader (PerkinElmer, Waltham, MA, USA). Tumor cell survival (TCS) was calculated using the following equation: TCS = (OD drug-exposed well/mean OD control wells) × 100%. The IC50 value, representing the concentration of the compound lethal to 50% of the tumor cells, was calculated from the corresponding dose-response curves using Dotmatics software (Updated version 2022, London, UK). After three days of incubation on the cancer cell lines and normal fibroblasts, the […] (IC50) were obtained. Five assays were performed for each cell line. The standard error of the assays was lower than 10%, as assessed by the triplicate assays.

K562 = experiment: Cytotoxic MTS assay, K562; type: cell-based; details: 72 h, median of five assays
Excerpt: as §2, §3

HCT116KO53 = experiment: Cytotoxic MTS assay, HCT116 p53 knockout 2D; type: cell-based; details: 72 h, median of five assays
Excerpt: as §2, §3

HCT116KO53 spheroids = experiment: Spheroid viability assay (CellTiter-Glo 3D), HCT116 p53 KO spheroids; type: cell-based; details: 72 h, 100 pM to 50 μM
Method: (§4) Spheroid culture aims to analyze the drug’s effect on complex structures resembling solid tumors. The spheroids were prepared using the specific nonadherent plates for spheroid formation (Nunc Sphera, Thermo Fisher, Waltham, MA, USA) according to the simple protocol outlined by the manufacturer. The cell lines HCT116 parental, HCT116KOTp53, A549, and U2OS were cultured at a density of 2500 cells per well using medium containing 10% fetal calf serum and antibiotics: McCoy’s 5A medium for HCT116, F-12K (Kaighn’s Modified) for A549, and Dulbecco’s Modified Eagle Medium (DMEM). The cells were grown in culture for 48 h as recommended by the manufacturer and as described by Das et al. and Muñoz-Garcia et al..
(§5) The cell viability of the treated spheroids was assessed using the kit CellTiter-Glo 3D (Promega Corporation, Madison, WI, USA). The kit is designed to measure ATP as an indicator of viability, generating a luminescent readout that is more sensitive than colorimetric or fluorescence-based methods. The spheroids were cultivated with compounds at concentrations ranging from 100 pM to 50 μM in triplicate for 72 h, and the luminescence was measured using the Enspire apparatus (PerkinElmer). A standard curve was performed for each analysis as recommended by the manufacturer.

HCT116 par spheroids = experiment: Spheroid viability assay (CellTiter-Glo 3D), HCT116 parental spheroids; type: cell-based; details: 72 h, 100 pM to 50 μM
Method: as §4, §5

HCT116 par = experiment: Cytotoxic MTS assay, HCT116 parental 2D; type: cell-based; details: 72 h, median of five assays
Excerpt: as §2, §3

U2OS spheroids = experiment: Spheroid viability assay (CellTiter-Glo 3D), U2OS spheroids; type: cell-based; details: human tumors spheroids, 72 h, 100 pM to 50 μM
Method: as §4, §5

caspase 3 = experiment: Caspase 3 activity in lysed HCT116 cells from 2D and spheroids; type: cell-based, human; details: 12 h; for Caspase 3 activity, spheroid culture: HCT116 parental spheroids, 25 µM (cisplatin 15 μM); for Caspase 3 activity, 2D culture: HCT116 parental, 25 µM
Method: as §1

RAMOS = experiment: Cytotoxic MTS assay, Ramos; type: cell-based; details: human leukemia cell line, 72 h, median of five assays
Excerpt: as §2, §3

MRC-5 LD = experiment: Cytotoxic MTS assay, MRC-5 LD fibroblasts (doxorubicin-resistant); type: cell-based; details: 72 h, median of five assays
Excerpt: as §2, §3

MRC-5 = experiment: Cytotoxic MTS assay, MRC-5 fibroblasts; type: cell-based; details: 72 h, median of five assays
Excerpt: as §2, §3

A549 = experiment: Cytotoxic MTS assay, A549 2D; type: cell-based; details: 72 h, median of five assays
Excerpt: as §2, §3

U2OS = experiment: Cytotoxic MTS assay, U2OS 2D; type: cell-based; details: human tumors 2D, 72 h, median of five assays
Excerpt: as §2, §3

A549 spheroids = experiment: Spheroid viability assay (CellTiter-Glo 3D), A549 spheroids; type: cell-based; details: 72 h, 100 pM to 50 μM
Method: as §4, §5

CCRF-CEM = experiment: Cytotoxic MTS assay, CCRF-CEM; type: cell-based; details: human leukemia cell line, 72 h, median of five assays
Excerpt: as §2, §3

BJ = experiment: Cytotoxic MTS assay, BJ fibroblasts; type: cell-based; details: human fibroblasts, 72 h, median of five assays
Excerpt: as §2, §3

BJ LD = experiment: Cytotoxic MTS assay, BJ LD fibroblasts (doxorubicin-resistant); type: cell-based; details: doxorubicin-resistant human fibroblasts, 72 h, median of five assays
Excerpt: as §2, §3

caspase 8 = experiment: Caspase 8 activity in lysed HCT116 cells from 2D and spheroids; type: cell-based, human; details: HCT116 parental spheroids, 25 µM (cisplatin 15 μM), 12 h
Method: as §1

[1] = system: mixed spheroids of MRC-5 fibroblasts with HCT116 or HCT116 p53 KO cells; experiment: Mixed spheroid viability assay; type: cell-based, human; details: mixed spheroids of fibroblasts and tumor cells
Method: as §5, with “Mixed spheroids were made by mixing MRC-5 fibroblasts with HCT116 or HCT116 p53 KO cells at a ratio of 1:1 (1000 cells/well); the cells were added immediately one after the other, and the formation of spheroids was monitored for 48 hrs. The mixed spheroids of both cell types had similar morphological features. The cell” for “The cell”

normal human leukocytes = system: normal human leukocytes; set-up: method as in PMID 31449809, PMID 35430982; details: 0.1 nM to 50 μM in 0.01% DMSO; cited from earlier work
[2] = HCT-116, human tumors spheroids
[3] = MRC5, doxorubicin-resistant human fibroblasts

| SMILES | Caspase 9 activity, spheroid culture (caspase 9) | IC50 (RAJI; Raji) [µM] | IC50 (K562; K562, human leukemia cell line) [µM] | IC50 (HCT116KO53; HCT-116, human tumors 2D) [µM] | IC50 (HCT116KO53 spheroids; [2]) [µM] | IC50 (HCT116 par spheroids; [2]) [µM] | IC50 (HCT116 par; HCT-116, human tumors 2D) [µM] | IC50 (U2OS spheroids; U2OS) [µM] | Caspase 3 activity, spheroid culture (caspase 3) | Caspase 3 activity, 2D culture (caspase 3) | IC50 (RAMOS; Ramos) [µM] | IC50 (MRC-5 LD; [3]) [µM] | IC50 (MRC-5; MRC5, human fibroblasts) [µM] | IC50 (A549; A549, human tumors 2D) [µM] | IC50 (U2OS; U2OS) [µM] | IC50 (A549 spheroids; A549, human tumors spheroids) [µM] | IC50 (CCRF-CEM; CCRF-CEM) [µM] | IC50 (BJ; BJ) [µM] | IC50 (BJ LD; Fibroblast) [µM] | Caspase 8 activity, spheroid culture (caspase 8) | further results |
| --- | --- | --- | --- | --- | --- | --- | --- | --- | --- | --- | --- | --- | --- | --- | --- | --- | --- | --- | --- | --- | --- |
| C=C1C(=O)C23CCC(C(=C)C)C(C)(CCC(=O)OC4CCCCC4)C2CCC1C3 (stereo not shown) [Compound 3, Caracasine Acid Cyclohexyl Ester] | absence of caspase activity | 1.86 | 2.21 | 1.63 | > 50 | > 50 | 1.59 | > 50 | absence of caspase activity | significant changes | 0.78 | 2.69 | 5.45 | 2.69 | 1.66 | > 50 | 0.38 | 7.38 | 6.5 | absence of caspase activity |  |
| N.N.[Cl][Pt][Cl] [Cisplatin, reference compound] | caspase activation was observed |  |  |  |  |  |  |  | caspase activation was observed |  |  |  |  |  |  |  |  |  |  | caspase activation was observed | IC50 (RAJI): 0.68 µM; IC50 [1]: 26.8 µM; IC50 (K562; human leukemia cell line): 6.98 µM; IC50 (HCT116KO53; human tumors 2D): 8.34 µM; IC50 (HCT116KO53 spheroids; human tumors spheroids): 45.7 µM; IC50 (HCT116 par spheroids; human tumors spheroids): 15.9 µM; IC50 (HCT116 par; human tumors 2D): 12.5 µM; IC50 (U2OS spheroids): 21.8 µM; IC50 (RAMOS): 0.56 µM; IC50 (MRC-5 LD; doxorubicin-resistant human fibroblasts): 23.5 µM; IC50 (MRC-5; human fibroblasts): 3.98 µM; IC50 (A549; human tumors 2D): 9.51 µM; IC50 (U2OS): 9.56 µM; IC50 (A549 spheroids; human tumors spheroids): 49.8 µM; IC50 (CCRF-CEM): 4.62 µM; IC50 (BJ): 9.5 µM; IC50 (BJ LD): 17.8 µM |
| C=C1C(=O)C23CCC(C(=C)C)C(C)(CCC(=O)O)C2CCC1C3 (stereo not shown) [Compound 1, Caracasine Acid] | absence of caspase activity | 0.85 | 4.77 | 1.52 | > 50 | > 50 | 1.73 | > 50 | absence of caspase activity | significant changes | 0.62 | 6.69 | 6.48 | 5.98 | 1.79 | > 50 | 0.38 | 6.88 | 7.04 | absence of caspase activity | Effect on primary leukocytes (normal human leukocytes): no significant effect |
